Laboratory results taken from patent US20060004197A1, “Sulfonamide-based compounds as protein tyrosine kinase inhibitors” (priority 2004, published 2006).

Target: T1, Recombinant human Src (Homo sapiens, UniProt P12931)
T1 construct: made in house; host or cells: baculovirus-insect cell system
Experiment: Src tyrosine kinase activity, poly E4Y / 32P-ATP phosphorylation assay
Format: biochemical
Settings: Table 2; compound at 15 ug/mL; read-out: % Inhibition at 15 ug/mL Src (%)
Procedure: Recombinant human Src was expressed using the baculovirus-insect cell system and purified as published (Budde et al., 1993 and 2000).
The tyrosine kinase activity of Src, Csk and FGFr was determined using poly E4Y and ^32P-ATP. Briefly, enzymes were assayed in a reaction mixture consisting of 0.15 M EPPS-NaOH (pH 8.0) with 6 mM MgCl2, 0.2 mM γ^32P-ATP (0.2-0.4 mCi/μmol), 10% glycerol, 0.1% Triton X-100, and poly E4Y. Poly E4Y is a synthetic peptide whose phosphorylation is measured in this assay by the addition of the radioactively labeled phosphate from the ATP (Budde et al., 1995). […] When ATP was varied (0, 50, 100 and 250 μM), poly E4Y was kept constant at 150 μg/ml.

T1 sequence (P12931 whole entry): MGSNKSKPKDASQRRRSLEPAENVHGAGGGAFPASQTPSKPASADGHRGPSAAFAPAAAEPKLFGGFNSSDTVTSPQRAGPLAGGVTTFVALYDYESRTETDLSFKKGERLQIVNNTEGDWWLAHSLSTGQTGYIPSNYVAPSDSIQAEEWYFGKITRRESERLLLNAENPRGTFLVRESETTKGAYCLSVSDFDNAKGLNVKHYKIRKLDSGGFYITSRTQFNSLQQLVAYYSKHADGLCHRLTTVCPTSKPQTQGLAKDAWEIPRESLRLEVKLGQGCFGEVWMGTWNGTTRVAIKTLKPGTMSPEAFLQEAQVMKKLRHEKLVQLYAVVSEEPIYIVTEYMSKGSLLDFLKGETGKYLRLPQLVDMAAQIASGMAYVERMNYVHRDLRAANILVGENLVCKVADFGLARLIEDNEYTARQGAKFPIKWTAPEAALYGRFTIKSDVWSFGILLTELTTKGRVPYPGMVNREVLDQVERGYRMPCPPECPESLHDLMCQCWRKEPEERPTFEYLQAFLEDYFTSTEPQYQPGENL

SMILES | inhibition at 15 µg/mL [%]
Cc1ccc(S(=O)(=O)Nc2cc(NC3CCCCC3)c([N+](=O)[O-])cc2NS(=O)(=O)c2ccc(C)cc2)cc1 [Compound 9j, N-[4-cyclohexylamino-5-nitro-2-(4-toluenesulfonylamino)-phenyl]-4-toluenesulfonamide] | 4
Cc1ccc(S(=O)(=O)Nc2cc(NCC3CCCCC3)c([N+](=O)[O-])cc2NS(=O)(=O)c2ccc(C)cc2)cc1 [Compound 9h, N-[4-(cyclohexylmethyl-amino)-5-nitro-2-(4-toluenesulfonylamino)-phenyl]-4-toluenesulfonamide] | 22
Cc1ccc(S(=O)(=O)Nc2cc(NCC3(O)CCCCC3)c([N+](=O)[O-])cc2NS(=O)(=O)c2ccc(C)cc2)cc1 [Compound 9i, N-[4-(1-hydroxy-cyclohexylmethyl-amino)-5-nitro-2-(4-toluenesulfonylamino)-phenyl]-4-toluenesulfonamide] | 18

Same assay, conditions: Table 2; compound at 50 μg/mL (starred values); read-out: % Inhibition Src (%), * = assayed at 50 μg/mL

SMILES | inhibition at 50 µg/mL [%]
Cc1ccc(S(=O)(=O)Nc2cc(N3CCOCC3)c([N+](=O)[O-])cc2NS(=O)(=O)c2ccc(C)cc2)cc1 [Compound 9a, N-[4-(morpholin-4-yl)-5-nitro-2-(4-toluenesulfonylamino)-phenyl]-4-toluenesulfonamide] | 13

Same assay, conditions: Table 3, Formula II compounds; NI = no inhibition at 100 μg/mL

SMILES | IC50 [µM]
Cc1ccc(S(=O)(=O)Nc2ccc(NC(=O)Cc3ccccc3)cc2NS(=O)(=O)c2ccc(C)cc2)cc1 [Compound 22h, 2-phenyl-N-[3,4-bis-(4-toluenesulfonylamino)-phenyl]-acetamide] | 47
COc1ccc(Oc2ccc(NS(=O)(=O)c3ccc(C)cc3)c(NS(=O)(=O)c3ccc(Br)s3)c2)cc1 [Compound 22gg, 5-bromo-N-[5-(4-methoxy-phenoxy)-2-(4-toluenesulfonylamino)-phenyl]-thiophene-2-sulfonamide] | 24
COc1ccc(Oc2ccc(NS(=O)(=O)c3cccc(OC)c3)c(NS(=O)(=O)c3ccc(C)cc3)c2)cc1 [Compound 22aa, 3-methoxy-N-[4-(4-methoxy-phenoxy)-2-(4-toluenesulfonylamino)-phenyl]-benzenesulfonamide] | 133
COc1ccc(Oc2ccc(NS(=O)(=O)c3c(C)noc3C)c(NS(=O)(=O)c3ccc(C)cc3)c2)cc1 [Compound 22r, 3,5-dimethyl-N-[4-(4-methoxy-phenoxy)-2-(4-toluenesulfonylamino)-phenyl]-isoxazole-4-sulfonamide] | 335
CC(=O)OCCCCCOc1ccc(NS(=O)(=O)c2ccc(C)cc2)c(NS(=O)(=O)c2ccc(C)cc2)c1 [Compound 12ee, 5-[3,4-bis-(4-toluenesulfonylamino)-phenoxy]-pentyl acetate] | 131
Cc1ccc(S(=O)(=O)Nc2ccc(C(=O)NCc3cccc4ccccc34)cc2NS(=O)(=O)c2ccc(C)cc2)cc1 [Compound 22g, N-naphthalen-1-ylmethyl-3,4-bis-(4-toluenesulfonylamino)-benzamide] | 18

Same assay, conditions: Table 3; compound at 15 μg/mL; read-out: % Inhibition at 15 μg/mL Src (%)

SMILES | inhibition at 15 µg/mL [%]
COc1ccc(Oc2ccc(NS(=O)(=O)c3ccc(C)cc3)c(NS(=O)(=O)c3ccc(S(C)(=O)=O)cc3)c2)cc1 [Compound 22ff, 4-methanesulfonyl-N-[5-(4-methoxy-phenoxy)-2-(4-toluenesulfonylamino)-phenyl]-benzenesulfonamide] | 2
CON=C(c1ccccc1)c1ccc(NS(=O)(=O)c2ccc(C)cc2)c(NS(=O)(=O)c2ccc(C)cc2)c1 [Compound 22kk, N-[4-(methoxyimino-phenyl-methyl)-2-(4-toluenesulfonylamino)-phenyl]-4-toluenesulfonamide] | 23
COc1ccc(Oc2ccc(NS(=O)(=O)c3ccc(C)cc3)c(NS(=O)(=O)c3ccc(C)cc3OC)c2)cc1 [Compound 22hh, 2-methoxy-N-[5-(4-methoxy-phenoxy)-2-(4-toluenesulfonylamino)-phenyl]-4-methyl-benzenesulfonamide] | 17
C=CCOc1ccc(NS(=O)(=O)c2ccc(C)cc2)c(NS(=O)(=O)c2ccc(C)cc2)c1 [Compound 12cc, N-[4-allyloxy-2-(4-toluenesulfonylamino)-phenyl]-4-toluenesulfonamide] | 19
COC(=O)c1c(S(=O)(=O)Nc2ccc(Oc3ccc(OC)cc3)cc2NS(=O)(=O)c2ccc(C)cc2)c(C)n(C)c1C [Compound 22w, methyl 4-[4-(4-methoxy-phenoxy)-2-(4-toluenesulfonylamino)-phenylsulfamoyl]-1,2,5-trimethyl-1H-pyrrole-3-carboxylate] | 6
COC(=O)c1c(S(=O)(=O)Nc2cc(Oc3ccc(OC)cc3)ccc2NS(=O)(=O)c2ccc(C)cc2)c(C)n(C)c1C [Compound 22dd, methyl 4-[5-(4-methoxy-phenoxy)-2-(4-toluenesulfonylamino)-phenylsulfamoyl]-1,2,5-trimethyl-1H-pyrrole-3-carboxylate] | 5

Same assay, conditions: Table 4, Formula III compounds; NI = no inhibition at 100 μg/mL

SMILES | IC50 [µM]
COc1ccc(Oc2cc(NS(=O)(=O)c3ccc(C)cc3)c(NS(=O)(=O)c3ccc(C)cc3)cc2C(=O)O)cc1 [Compound 34, 2-(4-methoxy-phenoxy)-4,5-bis-(4-toluenesulfonylamino)-benzoic acid] | 77

Same assay, conditions: compound at 15 μg/mL; read-out: % Inhibition at 15 μg/mL Src %

SMILES | inhibition at 15 µg/mL [%]
CCCC(=O)Nc1cc(Oc2ccc(OC)cc2)ccc1NS(=O)(=O)c1ccc(C)cc1 [Compound 71z, N-[5-(4-methoxy-phenoxy)-2-(4-toluenesulfonylamino)-phenyl]-butyramide] | 5
COc1ccc(OCc2ccc(CNS(C)(=O)=O)c(NS(=O)(=O)c3ccc4cc(C)ccc4c3)c2)cc1 [Compound 71x, N-[2-(methanesulfonylamino-methyl)-5-(4-methoxy-phenoxymethyl)-phenyl]-6-methyl-naphthalene-2-sulfonamide] | 20
COc1ccc(Oc2ccc(NS(=O)(=O)c3ccc(C)cc3)c(N=Cc3ccc4ccccc4n3)c2)cc1 [Compound 71u, N-{4-(4-methoxy-phenoxy)-2-[(quinolin-2-ylmethylene)-amino]-phenyl}-4-toluenesulfonamide] | 6
Cc1ccc(C(=O)Nc2cc(N3CCOCC3)c([N+](=O)[O-])cc2NC(=O)c2ccc(C)cc2)cc1 [Compound 71y, N-(4-morpholin-4-yl-5-nitro-2-(4-toluoylamino)-phenyl)-4-toluamide] | 14
COc1ccc(Oc2ccc(NC(=O)c3ccc(C#N)nc3)c(NS(=O)(=O)c3ccc(C)cc3)c2)cc1 [Compound 71b, 6-cyano-N-[4-(4-methoxy-phenoxy)-2-(4-toluenesulfonylamino)-phenyl]-nicotinamide] | 0
COc1ccc(OCc2ccc(C(N)=O)c(NS(=O)(=O)c3ccc(C)cc3)c2)cc1 [Compound 71v, 4-(4-methoxy-phenoxymethyl)-2-(4-toluenesulfonylamino)-benzamide] | 10
COc1ccc(OCc2ccc(CN)c(NS(=O)(=O)c3ccc(C)cc3)c2)cc1 [Compound 71w, N-[2-aminomethyl-5-(4-methoxy-phenoxymethyl)-phenyl]-4-toluenesulfonamide] | 9
COc1ccc(Oc2ccc(NC(=O)c3ccc(C(F)(F)F)nc3)c(NS(=O)(=O)c3ccc(C)cc3)c2)cc1 [Compound 71c, N-[4-(4-methoxy-phenoxy)-2-(4-toluenesulfonylamino)-phenyl]-6-trifluoromethyl-nicotinamide] | 5
COc1ccc(Oc2ccc(NS(=O)(=O)c3ccc(C)cc3)c(NC(=O)NS(=O)(=O)c3ccc(C)cc3)c2)cc1 [Compound 71ii, N-{4-(4-methoxy-phenoxy)-2-[3-(4-toluenesulfonyl)-ureido]-phenyl}-4-toluenesulfonamide] | 21
Cc1ccc(C(=O)Nc2cc(NCc3cccc4ccccc34)c([N+](=O)[O-])cc2NC(=O)c2ccc(C)cc2)cc1 [Compound 71bb, N-{4-[(naphthalen-1-ylmethyl)-amino]-5-nitro-2-(4-toluoylamino)-phenyl}-4-toluamide] | 22
COc1ccc(Oc2ccc(NS(=O)(=O)c3ccc(C)cc3)c(NCc3ccc(C)cc3)c2)cc1 [Compound 71hh, N-[4-(4-methoxy-phenoxy)-2-(4-methyl-benzylamino)-phenyl]-4-toluenesulfonamide] | 23

Same assay, conditions: poly E4Y / 32P-ATP; Formula IV compounds

SMILES | IC50 [µM]
COc1ccc(Oc2ccc(NS(=O)(=O)c3ccc(C)cc3)c(N)c2)cc1 [Compound 71l, N-[2-amino-4-(4-methoxy-phenoxy)-phenyl]-4-toluenesulfonamide] | 62
COc1ccc(Oc2ccc(NC(=O)c3ccc(C)cc3)c(NS(=O)(=O)c3ccc(C)cc3)c2)cc1 [Compound 71r, N-[4-(4-methoxy-phenoxy)-2-(4-toluenesulfonylamino)-phenyl]-4-toluamide] | 159
COc1ccc(Oc2ccc(NS(=O)(=O)c3ccc(C)cc3)c(N(C)S(=O)(=O)c3ccc(C)cc3)c2)cc1 [Compound 71dd, N-[4-(4-methoxy-phenoxy)-2-(4-toluenesulfonyl-methyl-amino)-phenyl]-4-toluenesulfonamide] | 172
COc1ccc(Oc2ccc(NCc3ccc(C#N)cc3)c(NS(=O)(=O)c3ccc(C)cc3)c2)cc1 [Compound 71d, N-[2-(4-cyano-benzylamino)-5-(4-methoxy-phenoxy)-phenyl]-4-toluenesulfonamide] | 557
COc1ccc(Oc2ccc(NS(=O)(=O)c3ccc(C)cc3)c(CNS(=O)(=O)c3ccc(C)cc3)c2)cc1 [Compound 71m, N-[4-(4-methoxy-phenoxy)-2-(4-toluenesulfonylamino-methyl)-phenyl]-4-toluenesulfonamide] | 136
